Measurements as given in paper PMC2650736 (Drug metabolism and disposition: the biological fate of …, 2008).
Where two headings read alike, the source gives them in different places.

Columns and labels:
[1] = type: in vivo, human; conditions: for Cmax: read-out: Cmax, Geometric Mean (CV %)
[2] = test system: Caco-2 cell monolayers; experiment: Midazolam absorptive permeability in Caco-2 cell monolayers; type: in vitro ADME, human
[3] = as above; type: in vitro ADME, human; conditions: human, apical to basolateral, midazolam 3 μM
[4] = CBJ, single oral 5 mg midazolam
[5] = water, single oral 5 mg midazolam

SMILES: OCc1ncc2n1-c1ccc(Cl)cc1C(c1ccccc1F)=NC2 [1'-Hydroxymidazolam, 1'-hydroxymidazolam]
- tmax [median (range)] ([1]; CBJ (3 × 240 ml sweetened double-strength juice E), single oral 5 mg midazolam): 2.0 (1.0−6.0) h
- AUC0-∞, Geometric Mean (CV %) [1, 4]: 62 (25) nM●h
- AUClast, Geometric Mean (CV %) [1, 4]: 55 (23) nM●h
- t1/2 (terminal half-life), Geometric Mean (CV %) [1, 4]: 3.3 (19) h
- Cmax [1, 4]: 10 nM
- Cmax [1, 5]: 33 nM
- AUC0-∞, CBJ / Water Ratio [90% CI] ([1]; single oral 5 mg midazolam): 0.84 [0.77−0.92]
- AUClast, CBJ / Water Ratio [90% CI] ([1]; single oral 5 mg midazolam): 0.80 [0.73−0.88]
- Cmax, CBJ / Water Ratio [90% CI] ([1]; single oral 5 mg midazolam): 0.32 [0.27−0.38]
- t1/2, CBJ / Water Ratio [90% CI] ([1]; single oral 5 mg midazolam): 1.04 [0.89−1.20]
- AUC0-∞, Geometric Mean (CV %) [1, 5]: 74 (37) nM●h
- AUClast, Geometric Mean (CV %) [1, 5]: 69 (35) nM●h
- t1/2 (terminal half-life), Geometric Mean (CV %) [1, 5]: 3.2 (35) h
- tmax [median (range)] ([1]; water, single oral 5 mg midazolam, 16 healthy volunteers): 0.5 (0.25−1.5) h

SMILES: Cc1ncc2n1-c1ccc(Cl)cc1C(c1ccccc1F)=NC2 [midazolam]
- total amount of midazolam recovered from apical and basolateral chambers ([2]; all time points, all conditions): ≥ 80 % of the initial amount added to the apical chamber
- amount of midazolam recovered from cell scrapings ([2]; end of 4-hour experiment, all four conditions): 7−9 % of the initial amount added to the apical chamber
- Papp A→B at 3 μM ([3]; Caco-2, Papp, acidic pH (5.5)): 21.9 ± 3.3 ×10⁻⁶ cm/s
- Papp A→B at 3 μM ([3]; Caco-2, pH 7.4, Papp, control (plain incubation medium, pH 7.4)): 19.4 ± 1.8 ×10⁻⁶ cm/s
- Papp A→B at 3 μM ([3]; Caco-2, pH 7.4, Papp, high glucose (50 g/L, pH 7.4)): 18.9 ± 2.8 ×10⁻⁶ cm/s
- CI/F, Geometric Mean (CV %) [1, 4]: 54 (30) L/h
- t1/2 (terminal half-life), Geometric Mean (CV %) [1, 4]: 2.9 (25) h
- half-life ([1]; human, plasma, po, 5 mg): 2.9 h
- AUC0-∞, CBJ / Water Ratio [90% CI] ([1]; single oral 5 mg midazolam): 1.33 [1.17−1.50]
- AUClast, CBJ / Water Ratio [90% CI] ([1]; single oral 5 mg midazolam): 1.31 [1.18−1.46]
- CI/F, CBJ / Water Ratio [90% CI] ([1]; single oral 5 mg midazolam): 0.75 [0.67−0.85]
- Cmax, CBJ / Water Ratio [90% CI] ([1]; single oral 5 mg midazolam): 0.56 [0.49−0.64]
- t1/2, CBJ / Water Ratio [90% CI] ([1]; single oral 5 mg midazolam): 1.01 [0.86−1.19]
- CI/F, Geometric Mean (CV %) [1, 5]: 71 (33) L/h
